Reference: ChEMBL document CHEMBL3421531, “Synthesis, and structure-activity relationship for C(4) and/or C(5) thienyl substituted pyrimidines, as a new family of antimycobacterial compounds” (Eur J Med Chem, 2015)
Converted amounts (≈) assume the structure as drawn.

Test system: Mycobacterium tuberculosis
Assay: Antimycobacterial activity against rifampin,isoniazid-resistant Mycobacterium tuberculosis expressing rpoB/katG mutant after 10 days by microbroth dilution method
Type: functional

SMILES | MIC [µM]
Brc1ccc(-c2ncncc2-c2ccsc2)s1 | 19.34 (≈ 6.25 µg/mL)
c1ccc(-c2ccc(-c3cncnc3)s2)cc1 | 26.23 (≈ 6.25 µg/mL)
c1csc(-c2cncnc2-c2cccs2)c1 | 12.69 (≈ 3.1 µg/mL)
c1csc(-c2ccc(-c3ncncc3-c3ccsc3)s2)c1 | 19.14 (≈ 6.25 µg/mL)
c1ccc(-c2ccc(-c3ncncc3-c3csc4ccccc34)s2)cc1 | 0.4 (≈ 0.148 µg/mL)
Brc1cncnc1 | 78.62 (≈ 12.5 µg/mL)
Brc1ccc(-c2ncncc2-c2cccs2)s1 | 38.67 (≈ 12.5 µg/mL)
c1csc(-c2ccc(-c3ncncc3-c3cccs3)s2)c1 | 2.14 (≈ 0.699 µg/mL)
c1ccc(-c2ccc(-c3ncncc3-c3cccs3)s2)cc1 | 39.01 (≈ 12.5 µg/mL)
c1csc(-c2ccc(-c3ccncn3)s2)c1 | 51.16 (≈ 12.5 µg/mL)
c1csc(-c2ncncc2-c2ccsc2)c1 | 25.58 (≈ 6.25 µg/mL)
Brc1ccc(-c2cncnc2)s1 | 51.84 (≈ 12.5 µg/mL)
c1csc(-c2ccc(-c3ncncc3-c3cc4ccccc4s3)s2)c1 | 33.2 (≈ 12.5 µg/mL)
c1ccc2sc(-c3cncnc3)cc2c1 | 58.89 (≈ 12.5 µg/mL)
c1csc(-c2ncncc2-c2csc3ccccc23)c1 | 42.46 (≈ 12.5 µg/mL)
c1csc(-c2ncncc2-c2cc3ccccc3s2)c1 | 21.23 (≈ 6.25 µg/mL)
c1ccc2c(-c3cncnc3)csc2c1 | 7.07 (≈ 1.5 µg/mL)
c1csc(-c2ccc(-c3ncncc3-c3csc4ccccc34)s2)c1 | 0.98 (≈ 0.369 µg/mL)
c1csc(-c2cncnc2)c1 | 38.53 (≈ 6.25 µg/mL)
Brc1ccc(-c2ncncc2-c2csc3ccccc23)s1 | 8.3 (≈ 3.1 µg/mL)
c1ccc(-c2ccc(-c3ncncc3-c3ccsc3)s2)cc1 | 19.5 (≈ 6.25 µg/mL)
Brc1ccc(-c2ncncc2Br)s1 | 9.69 (≈ 3.1 µg/mL)
c1csc(-c2ccc(-c3cncnc3)s2)c1 | 25.58 (≈ 6.25 µg/mL)
c1ncc(-c2ccsc2)cn1 | 77.06 (≈ 12.5 µg/mL)
Brc1ccc(-c2ncncc2-c2cc3ccccc3s2)s1 | 33.49 (≈ 12.5 µg/mL)
c1ccc(-c2ccc(-c3ncncc3-c3cc4ccccc4s3)s2)cc1 | 8.37 (≈ 3.1 µg/mL)
